According to PubChem BioAssay (NCI):
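Assay format: 96-well plates, 48-hour exposure. TGI marks complete inhibition of growth.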

Legend:
Assay in all cases: growth of human tumour cells (NCI), 48 h
[1] = system: 786-0 renal
[2] = system: A498 renal
[3] = system: A549 NSCLC
[4] = system: ACHN renal
[5] = system: CAKI-1 renal
[6] = system: CCRF-CEM leukemia
[7] = system: COLO 205 colon
[8] = system: DLD-1 colon
[9] = system: DMS 114 small cell lung
[10] = system: DMS 273 small cell lung
[11] = system: EKVX NSCLC
[12] = system: HCC-2998 colon
[13] = system: HCT-15 colon
[14] = system: HL-60(TB) leukemia
[15] = system: HOP-62 NSCLC
[16] = system: HOP-92 NSCLC
[17] = system: HT29 colon
[18] = system: IGROV1 ovarian
[19] = system: K-562 leukemia
[20] = system: KM12 colon
[21] = system: KM20L2 colon
[22] = system: LOX IMVI melanoma
[23] = system: M14 melanoma
[24] = system: M19-MEL melanoma
[25] = system: MALME-3M melanoma
[26] = system: MOLT-4 leukemia
[27] = system: NCI-H226 lung
[28] = system: NCI-H23 lung
[29] = system: NCI-H460 lung
[30] = system: NCI-H522 lung
[31] = system: OVCAR-3 ovarian
[32] = system: OVCAR-4 ovarian
[33] = system: OVCAR-5 ovarian
[34] = system: OVCAR-8 ovarian
[35] = system: RPMI-8226 leukemia
[36] = system: RXF 393 renal
[37] = system: SF-268 CNS
[38] = system: SF-295 CNS
[39] = system: SF-539 CNS
[40] = system: SK-MEL-2 melanoma
[41] = system: SK-MEL-28 melanoma
[42] = system: SK-MEL-5 melanoma
[43] = system: SK-OV-3 ovarian
[44] = system: SN12C renal
[45] = system: SNB-19 CNS
[46] = system: SNB-75 CNS
[47] = system: SNB-78 CNS
[48] = system: SW-620 colon
[49] = system: TK-10 renal
[50] = system: U251 CNS
[51] = system: UACC-257 melanoma
[52] = system: UACC-62 melanoma
[53] = system: UO-31 renal
[54] = system: HCT-116 colon
[55] = system: LXFL 529 NSCLC
[56] = system: SR leukemia
[57] = system: XF 498 CNS

## Cc1ccc(S(=O)(=O)N(/N=C/C=C/c2ccccc2)c2nnc(-c3ccccc3)c(-c3ccccc3)n2)cc1
[1]
  TGI: 74.3 µM
[2]
  TGI: > 100 µM
[3]
  TGI: 94.4 µM
[4]
  TGI: > 100 µM
[5]
  TGI: 57 µM
[6]
  TGI: > 100 µM
[7]
  TGI: 36.1 µM
[8]
  TGI: > 100 µM
[9]
  TGI: 54.1 µM
[10]
  TGI: 66.9 µM
[11]
  TGI: > 100 µM
[12]
  TGI: 29.5 µM
[13]
  TGI: > 100 µM
[14]
  TGI: 50.4 µM
[15]
  TGI: 48.9 µM
[16]
  TGI: 47.4 µM
[17]
  TGI: 23 µM
[18]
  TGI: > 100 µM
[19]
  TGI: 80 µM
[20]
  TGI: > 100 µM
[21]
  TGI: 40.5 µM
[22]
  TGI: 51.3 µM
[23]
  TGI: 49.4 µM
[24]
  TGI: 78.3 µM
[25]
  TGI: > 100 µM
[26]
  TGI: 76.5 µM
[27]
  TGI: 55.6 µM
[28]
  TGI: 66.8 µM
[29]
  TGI: > 100 µM
[30]
  TGI: 51.9 µM
[31]
  TGI: 88.6 µM
[32]
  TGI: > 100 µM
[33]
  TGI: > 100 µM
[34]
  TGI: > 100 µM
[35]
  TGI: 40.3 µM
[36]
  TGI: 60.7 µM
[37]
  TGI: 96.9 µM
[38]
  TGI: 64.3 µM
[39]
  TGI: 33 µM
[40]
  TGI: 47.8 µM
[41]
  TGI: 78.4 µM
[42]
  TGI: 35.1 µM
[43]
  TGI: 75.1 µM
[44]
  TGI: > 100 µM
[45]
  TGI: > 100 µM
[46]
  TGI: 69 µM
[47]
  TGI: > 100 µM
[48]
  TGI: > 100 µM
[49]
  TGI: 76.9 µM
[50]
  TGI: > 100 µM
[51]
  TGI: 98.7 µM
[52]
  TGI: > 100 µM
[53]
  TGI: 23.4 µM

## CCC1=C(CC)C1(C#N)[N+](=O)[O-]
[1]
  TGI: > 100 µM
[2]
  TGI: > 100 µM
[3]
  TGI: > 100 µM
[4]
  TGI: > 100 µM
[5]
  TGI: > 100 µM
[6]
  TGI: > 100 µM
[7]
  TGI: > 100 µM
[8]
  TGI: > 100 µM
[9]
  TGI: > 100 µM
[10]
  TGI: > 100 µM
[11]
  TGI: > 100 µM
[54]
  TGI: > 100 µM
[13]
  TGI: > 100 µM
[14]
  TGI: > 100 µM
[15]
  TGI: > 100 µM
[17]
  TGI: > 100 µM
[18]
  TGI: > 100 µM
[19]
  TGI: > 100 µM
[20]
  TGI: > 100 µM
[21]
  TGI: > 100 µM
[22]
  TGI: > 100 µM
[55]
  TGI: > 100 µM
[23]
  TGI: > 100 µM
[24]
  TGI: > 100 µM
[25]
  TGI: > 100 µM
[26]
  TGI: > 100 µM
[27]
  TGI: > 100 µM
[28]
  TGI: > 100 µM
[29]
  TGI: > 100 µM
[30]
  TGI: > 100 µM
[31]
  TGI: > 100 µM
[32]
  TGI: > 100 µM
[33]
  TGI: > 100 µM
[34]
  TGI: > 100 µM
[35]
  TGI: > 100 µM
[37]
  TGI: > 100 µM
[38]
  TGI: > 100 µM
[39]
  TGI: > 100 µM
[40]
  TGI: > 100 µM
[42]
  TGI: > 100 µM
[43]
  TGI: > 100 µM
[44]
  TGI: > 100 µM
[45]
  TGI: > 100 µM
[47]
  TGI: > 100 µM
[56]
  TGI: > 100 µM
[48]
  TGI: > 100 µM
[49]
  TGI: > 100 µM
[50]
  TGI: > 100 µM
[51]
  TGI: > 100 µM
[52]
  TGI: > 100 µM
[53]
  TGI: > 100 µM

## CCc1ccccc1NC(=O)C1=C(C)NC(C)=C(C(=O)Nc2c(CC)cccc2CC)C1c1ccc2c(c1)OCO2 (stereo unspecified)
[1]
  TGI: 34.8 µM
[3]
  TGI: 39.2 µM
[4]
  TGI: 35.1 µM
[5]
  TGI: 39.7 µM
[6]
  TGI: 51.4 µM
[7]
  TGI: 44.1 µM
[8]
  TGI: 51.3 µM
[9]
  TGI: 53.5 µM
[11]
  TGI: 69.4 µM
[12]
  TGI: 30.2 µM
[54]
  TGI: 30.6 µM
[14]
  TGI: 58.4 µM
[15]
  TGI: 35 µM
[16]
  TGI: 36.4 µM
[17]
  TGI: 32.2 µM
[18]
  TGI: 94.7 µM
[19]
  TGI: 58.7 µM
[20]
  TGI: 30.5 µM
[21]
  TGI: 39.3 µM
[22]
  TGI: 35.1 µM
[55]
  TGI: 33 µM
[23]
  TGI: 33.5 µM
[24]
  TGI: 54.7 µM
[25]
  TGI: 32.5 µM
[26]
  TGI: 57.5 µM
[27]
  TGI: 43.4 µM
[28]
  TGI: 31.2 µM
[29]
  TGI: 33.8 µM
[30]
  TGI: 30.9 µM
[31]
  TGI: 38.4 µM
[32]
  TGI: 35.9 µM
[33]
  TGI: 36.1 µM
[34]
  TGI: 84.5 µM
[35]
  TGI: 41.3 µM
[36]
  TGI: 25.4 µM
[37]
  TGI: 57.6 µM
[38]
  TGI: 48.5 µM
[39]
  TGI: 40.4 µM
[40]
  TGI: 29.5 µM
[41]
  TGI: 36.6 µM
[42]
  TGI: 28.5 µM
[43]
  TGI: > 100 µM
[44]
  TGI: 74.3 µM
[45]
  TGI: 76.6 µM
[46]
  TGI: > 100 µM
[47]
  TGI: 81.7 µM
[48]
  TGI: 43.2 µM
[49]
  TGI: 53.5 µM
[50]
  TGI: 30 µM
[51]
  TGI: 35.4 µM
[53]
  TGI: 29.8 µM
[57]
  TGI: 47.5 µM
